In patent US20220370453A1 (Storm Therapeutics Ltd, priority 2019, published 2022):

Key:
BCDIN3D [1] = biological target: T1, BCDIN3D (Homo sapiens, UniProt Q7Z5W3); assay: BCDIN3D InCellPulse thermal stability assay in transfected A549 cells; format: cell-based; settings: heat shock 58° C. 15 min
T1 sequence (Q7Z5W3 1-292): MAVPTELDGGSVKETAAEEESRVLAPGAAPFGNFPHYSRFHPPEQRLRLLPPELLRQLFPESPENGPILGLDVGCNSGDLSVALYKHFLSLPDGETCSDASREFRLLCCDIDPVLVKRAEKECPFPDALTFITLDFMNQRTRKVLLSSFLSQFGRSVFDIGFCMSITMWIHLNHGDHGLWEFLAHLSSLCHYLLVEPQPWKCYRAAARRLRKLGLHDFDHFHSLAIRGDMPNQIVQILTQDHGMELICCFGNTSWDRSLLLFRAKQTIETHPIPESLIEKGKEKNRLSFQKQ
Method in brief: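 Thermal stabilisation read-out: after a 15 min 58 °C heat shock, ePL-tagged BCDIN3D in transiently transfected A549 cells (1500/well) was quantified by enzyme-fragment complementation luminescence. Compounds were pre-incubated with cells 1 h at 37 °C, 0.6% DMSO final.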

BCDIN3D [2] = biological target: T1, BCDIN3D; assay: BCDIN3D IC50 RFMS (RapidFire) assay with mini-helix; format: biochemical; settings: 25 nM enzyme
Method in brief: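 SAH formation was measured by RapidFire mass spectrometry with D4- and 13C10-SAH internal standards after TCA quench. Substrates 6 μM SAM and 0.2 μM mini-helix reacted 1 h at 37 °C with 25 nM enzyme, which had been preincubated 10 min with compound (1% DMSO) in Tris pH 8.0 buffer with DTT, EDTA, BSA.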

[3] = transiently transfected A549 cells
[4] = mini-helix substrate 0.2 μM, SAM 6 μM
[5] = A549 cells transiently transfected with ePL-BCDIN3D, 1 h pre-incubation
[6] = mini-helix 0.2 μM and SAM 6 μM as substrates, 1 hr at 37° C.

Row | Compound | IC50 (BCDIN3D [1]; [3]) [nM] | IC50 (BCDIN3D [2]; [4]) [nM] | IC50 (BCDIN3D [1]; [5]) [nM] | IC50 (BCDIN3D [2]; [6]) [nM]
1 | Cn1ncc2c(NC3CC(CO)(CCl)C3)nc(NCC(N)c3ccccc3)nc21 (stereo not drawn) [Compound 4.81, [3-[[6-[(2-amino-2-phenyl-ethyl)amino]-1-methyl-pyrazolo[3,4-d]pyrimidin-4-yl]amino]-1-(chloromethyl)cyclobutyl]methanol] | 625 | 583 |  | 
2 | Cn1ncc2c(Nc3ccc(C(F)(F)F)nc3)nc(NCC3(N)CCOCC3)nc21 [Compound 1.35, 6-N-[(4-aminooxan-4-yl)methyl]-1-methyl-4-N-[6-(trifluoromethyl)pyridin-3-yl]pyrazolo[3,4-d]pyrimidine-4,6-diamine] |  |  | 7880 | 3950
3 | C[C@H](Nc1nc(NC[C@H](N)c2ccccc2)nc2c1cnn2C)C(F)(F)F [Compound 4.76, N6-[(2R)-2-amino-2-phenyl-ethyl]-1-methyl-N4-[(1S)-2,2,2-trifluoro-1-methyl-ethyl]pyrazolo[3,4-d]pyrimidine-4,6-diamine] | 232 | 136 |  | 
4 | Cn1ncc2c(NC(C)(C)C)nc(NCC(N)c3cccnc3)nc21 (stereo not drawn) [Compound 5.08, N6-[2-amino-2-(3-pyridyl)ethyl]-N4-tert-butyl-1-methyl-pyrazolo[3,4-d]pyrimidine-4,6-diamine] | 1170 | 615 |  | 
5 | Cn1ncc2c(Nc3ccc(C(F)(F)F)nc3)nc(NCC(C)(N)c3ccccc3)nc21 (single isomer, unassigned) [Compound 7.15] |  |  | 133 | 38.1
6 | Cn1ncc2c(NC(C)(C)C)nc(NCC(N)c3ccccc3Br)nc21 (stereo not drawn) [Compound 5.20, N6-[2-amino-2-(2-bromophenyl)ethyl]-N4-tert-butyl-1-methyl-pyrazolo[3,4-d]pyrimidine-4,6-diamine] | 1120 | 609 |  | 
7 | Cc1ccc(CNc2nc(N[C@H]3CCCC[C@H]3N)nc3c2cnn3C)cc1Cl [Compound 7.02, 6-N-[(1S,2R)-2-aminocyclohexyl]-4-N-[(3-chloro-4-methylphenyl)methyl]-1-methylpyrazolo[3,4-d]pyrimidine-4,6-diamine] |  |  | 899 | 998
8 | CC(C)Nc1nc(NCC(N)c2ccccc2)nc2c1cnn2C (stereo not drawn) [Compound 4.46, 6-N-(2-amino-2-phenylethyl)-1-methyl-4-N-propan-2-ylpyrazolo[3,4-d]pyrimidine-4,6-diamine] | 1130 | 501 |  | 
9 | Cn1ncc2c(Nc3ccc(OC(F)F)cc3)nc(NCC3(N)CCC3)nc21 [Compound 3.09, N6-[(1-aminocyclobutyl)methyl]-N4-[4-(difluoromethoxy)phenyl]-1-methyl-pyrazolo[3,4-d]pyrimidine-4,6-diamine] | 503 | 201 |  | 
10 | CC(C)(C)Nc1nc(NC[C@H](N)c2ccccc2)nc2c1cnn2C1CC1 [Compound 4.121, N6-[(2R)-2-amino-2-phenyl-ethyl]-N4-tert-butyl-1-cyclopropyl-pyrazolo[3,4-d]pyrimidine-4,6-diamine] | 4810 | 6450 |  | 
11 | Cn1ncc2c(Nc3ccc(C(F)(F)F)cc3)nc(NCC(N)C3CC3)nc21 (stereo not drawn) [Compound 3.13, 6-N-(2-amino-2-cyclopropylethyl)-1-methyl-4-N-[4-(trifluoromethyl)phenyl]pyrazolo[3,4-d]pyrimidine-4,6-diamine] | 510 | 180 |  | 
12 | Cn1ncc2c(NC(C)(C)C)nc(NCC(N)c3cccc(C#N)c3)nc21 (stereo not drawn) [Compound 5.22, 3-[1-amino-2-[[4-(tert-butylamino)-1-methyl-pyrazolo[3,4-d]pyrimidin-6-yl]amino]ethyl]benzonitrile] | 129 | 42.8 |  | 
13 | Cn1ncc2c(NCC(F)(F)F)nc(NCC(N)c3ccccc3)nc21 (stereo not drawn) [Compound 4.44, 6-N-(2-amino-2-phenylethyl)-1-methyl-4-N-(2,2,2-trifluoroethyl)pyrazolo[3,4-d]pyrimidine-4,6-diamine] | 992 | 527 |  | 
14 | CC(C)Nc1nc(NC[C@H](N)c2cccc(Br)c2)nc2c1cnn2C [Compound 5.15, N6-[(2R)-2-amino-2-(3-bromophenyl)ethyl]-N4-isopropyl-1-methyl-pyrazolo[3,4-d]pyrimidine-4,6-diamine] | 47.1 | 28.4 |  | 
15 | CC(C)Oc1nc(NCC(N)c2ccccc2)nc2c1cnn2C (stereo not drawn) [Compound 6.04, N′-(1-methyl-4-propan-2-yloxypyrazolo[3,4-d]pyrimidin-6-yl)-1-phenylethane-1,2-diamine] |  |  | 4150 | 2620
16 | Cn1ncc2c(Nc3cccc(OC(F)F)c3)nc(NCC3(N)CC3)nc21 [Compound 2.21, 6-N-[(1-aminocyclopropyl)methyl]-4-N-[3-(difluoromethoxy)phenyl]-1-methylpyrazolo[3,4-d]pyrimidine-4,6-diamine] | 2470 | 514 |  | 
17 | [2H]C([2H])([2H])n1ncc2c(Nc3ccc(C(F)(F)F)nc3)nc(NCC(C)(N)c3ccccc3)nc21 (stereo not drawn) [Compound 4.27, N6-(2-amino-2-phenyl-propyl)-1-(trideuteriomethyl)-N4-[6-(trifluoromethyl)-3-pyridyl]pyrazolo[3,4-d]pyrimidine-4,6-diamine] | 610 | 46.6 |  | 
18 | [2H]C([2H])([2H])n1ncc2c(Nc3ccc(C(F)(F)F)cc3)nc(NCC(N)c3ccccc3)nc21 (stereo not drawn) [Compound 4.20, N6-(2-amino-2-phenyl-ethyl)-1-(trideuteriomethyl)-N4-[4-(trifluoromethyl)phenyl]pyrazolo[3,4-d]pyrimidine-4,6-diamine] | 60.4 | 38.5 |  | 
19 | Cc1ccc(CNc2nc(NCC(N)c3ccccn3)nc3c2cnn3C)cc1Cl (stereo not drawn) [Compound 5.02] | 944 | 217 |  | 
20 | COCC(C)(C)Nc1nc(NC[C@H](N)c2ccccc2)nc2c1cnn2C [Compound 4.100, N6-[(2R)-2-amino-2-phenyl-ethyl]-N4-(2-methoxy-1,1-dimethyl-ethyl)-1-methyl-pyrazolo[3,4-d]pyrimidine-4,6-diamine] | 1860 | 1330 |  | 
21 | COc1ccc(Nc2nc(NC[C@H](N)c3ccccc3)nc3c2cnn3C)cc1 [Compound 4.32, N6-[(2R)-2-amino-2-phenyl-ethyl]-N4-(4-methoxyphenyl)-1-methyl-pyrazolo[3,4-d]pyrimidine-4,6-diamine] | 140 | 95.8 |  | 
22 | Cn1ncc2c(Nc3ccc(C(F)(F)F)nc3)nc(NCC3(N)CCCC3)nc21 [Compound 3.19, 6-N-[(1-aminocyclopentyl)methyl]-1-methyl-4-N-[6-(trifluoromethyl)pyridin-3-yl]pyrazolo[3,4-d]pyrimidine-4,6-diamine] | 1240 | 357 |  | 
23 | Cn1ncc2c(Nc3ccc(C(F)(F)F)nc3)nc(NC[C@@H](N)c3ccccc3)nc21 [Compound 7.09, N6-[(2S)-2-amino-2-phenyl-ethyl]-1-methyl-N4-[6-(trifluoromethyl)-3-pyridyl]pyrazolo[3,4-d]pyrimidine-4,6-diamine] |  |  | 414 | 209
24 | Cn1ncc2c(NCC(C)(C)F)nc(NC[C@H](N)c3ccccc3)nc21 [Compound 4.110, N6-[(2R)-2-amino-2-phenyl-ethyl]-N4-(2-fluoro-2-methyl-propyl)-1-methyl-pyrazolo[3,4-d]pyrimidine-4,6-diamine] | 672 | 553 |  | 
25 | C#Cc1cccc(C(N)CNc2nc(NC(C)(C)C)c3cnn(C)c3n2)c1 (stereo not drawn) [Compound 5.05, N6-[2-Amino-2-(3-ethynylphenyl)ethyl]-N4-tert-butyl-1-methyl-pyrazolo[3,4-d]pyrimidine-4,6-diamine] | 68.3 | 51.8 |  | 
26 | Cn1ncc2c(NC3CC(F)C3)nc(NC[C@H](N)c3ccccc3)nc21 (stereo partly drawn) [Compound 4.88, N6-[(2R)-2-amino-2-phenyl-ethyl]-N4-(3-fluorocyclobutyl)-1-methyl-pyrazolo[3,4-d]pyrimidine-4,6-diamine] | 148 | 112 |  | 
27 | Cn1ncc2c(Nc3ccc(C(F)(F)F)cc3)nc(NCC3(N)CCCCC3)nc21 [Compound 1.32, N6-[(1-aminocyclohexyl)methyl]-1-methyl-N4-[4-(trifluoromethyl)phenyl]pyrazolo[3,4-d]pyrimidine-4,6-diamine] |  |  | 234 | 77.9
28 | [2H]C([2H])([2H])n1ncc2c(Nc3ccc(C(F)(F)F)cc3)nc(NCC3(N)CC3)nc21 [Compound 2.49, N6-[(1-aminocyclopropyl)methyl]-1-(trideuteriomethyl)-N4-[4-(trifluoromethyl)phenyl]pyrazolo[3,4-d]pyrimidine-4,6-diamine] | 379 | 50 |  | 
29 | [2H]C([2H])([2H])n1ncc2c(Nc3ccc(C(F)(F)F)cc3)nc(NCC3(N)CCC3)nc21 [Compound 3.24, N6-[(1-aminocyclobutyl)methyl]-1-(trideuteriomethyl)-N4-[4-(trifluoromethyl)phenyl]pyrazolo[3,4-d]pyrimidine-4,6-diamine] | 481 | 45 |  | 
30 | Cn1ncc2c(NC3(C)CCOCC3)nc(NC[C@H](N)c3ccccc3)nc21 [Compound 4.127, N6-[(2R)-2-amino-2-phenylethyl]-1-methyl-N4-(4-methyloxan-4-yl)-1H-pyrazolo[3,4-d]pyrimidine-4,6-diamine] | 2240 | 6770 |  | 
